Experimental data published in patent US20230276831A1, “Food/Beverage Article” (Kikkoman Corporation, priority 2020, published 2023).

Test system: Lactobacillus rennini (DSM 20253)
Assay: Antimicrobial action of licoricidin in soy sauce at various pH (Test Example 5)
Type: cell-based
Design: key: A: The bacterial count decreases to less than 10% of the bacterial count of the control group.; B: The bacterial count decreases to 10% or more and less than 50% of the bacterial count of the control group.; C: The bacterial count decreases to 50% or more and less than 100% of the bacterial count of control group.; D: The bacterial count is the same as the bacterial count of the control group
Protocol: Commercially available whole soybean soy sauce (produced by Kikkoman Corporation) was electrodialyzed and then concentrated under reduced pressure to obtain soy sauce at a salt concentration of 0% (w/v) and an alcohol concentration of 0% (v/v). Then, salt and/or alcohol was added to the above-mentioned obtained soy sauce, and hydrochloric acid or an aqueous sodium hydroxide solution was then added to adjust the pH to a desired pH. Germfree purified water was added, and the mixture was then heat-treated to produce soy sauce at the salt concentration, the alcohol concentration, and the pH shown in the following Table 17.
Licoricidin (produced by ChemFaces) was added to each of the obtained soy sauces to concentrations of 1 ppm, 5 ppm, 10 ppm, 25 ppm, and 50 ppm. Lactic acid bacteria (Lactobacillus rennini (DSM 20253)) were then added to 10^6 to 10^7 cells/mL and cultured at 30° C. for 7 days. After the culture, the number of lactic acid bacteria was measured using the GAM agar medium “Nissui”. Soy sauce to which licoricidin was not added was used as a control group, and the antimicrobial activity was evaluated in comparison with the number of lactic acid bacteria in the control group. The evaluation was performed using the same criterion as in Test Example 4.

With COc1c(CC=C(C)C)c(O)cc2c1C[C@H](c1ccc(O)c(CC=C(C)C)c1O)CO2 [Licoricidin, 4-[(R)-7-hydroxy-5-methoxy-6-(3-methyl-2-butenyl)chroman-3-yl]-2-(3-methyl-2-butenyl)-1,3-benzenediol] the Antimicrobial activity (salt 0% (w/v), pH 4.2, alcohol 0% (v/v), licoricidin 1 ppm) was “B (The bacterial count decreases to 10% or more and less than 50% of the bacterial count of the control group.)”, the Antimicrobial activity (salt 0% (w/v), pH 4.2, alcohol 0% (v/v), licoricidin 5 ppm) was “B (The bacterial count decreases to 10% or more and less than 50% of the bacterial count of the control group.)” and the Antimicrobial activity (salt 0% (w/v), pH 4.2, alcohol 0% (v/v), licoricidin 10 ppm) was “A (The bacterial count decreases to less than 10% of the bacterial count of the control group.)”. The Antimicrobial activity (salt 0% (w/v), pH 4.2, alcohol 0% (v/v), licoricidin 25 ppm) was “A (The bacterial count decreases to less than 10% of the bacterial count of the control group.)”, the Antimicrobial activity (salt 0% (w/v), pH 4.2, alcohol 0% (v/v), licoricidin 50 ppm) was “A (The bacterial count decreases to less than 10% of the bacterial count of the control group.)” and the Antimicrobial activity (salt 0% (w/v), pH 4.2, alcohol 5% (v/v), licoricidin 1 ppm) was “B (The bacterial count decreases to 10% or more and less than 50% of the bacterial count of the control group.)”. The Antimicrobial activity (salt 0% (w/v), pH 4.2, alcohol 5% (v/v), licoricidin 5 ppm) was “A (The bacterial count decreases to less than 10% of the bacterial count of the control group.)”, the Antimicrobial activity (salt 0% (w/v), pH 4.2, alcohol 5% (v/v), licoricidin 10 ppm) was “A (The bacterial count decreases to less than 10% of the bacterial count of the control group.)” and the Antimicrobial activity (salt 0% (w/v), pH 4.2, alcohol 5% (v/v), licoricidin 25 ppm) was “A (The bacterial count decreases to less than 10% of the bacterial count of the control group.)”. The Antimicrobial activity (salt 0% (w/v), pH 4.2, alcohol 5% (v/v), licoricidin 50 ppm) was “A (The bacterial count decreases to less than 10% of the bacterial count of the control group.)”, the Antimicrobial activity (salt 0% (w/v), pH 4.6, alcohol 0% (v/v), licoricidin 1 ppm) was “C (The bacterial count decreases to 50% or more and less than 100% of the bacterial count of control group.)” and the Antimicrobial activity (salt 0% (w/v), pH 4.6, alcohol 0% (v/v), licoricidin 5 ppm) was “B (The bacterial count decreases to 10% or more and less than 50% of the bacterial count of the control group.)”. For the same molecule, the Antimicrobial activity (salt 0% (w/v), pH 4.6, alcohol 0% (v/v), licoricidin 10 ppm) was “A (The bacterial count decreases to less than 10% of the bacterial count of the control group.)”, the Antimicrobial activity (salt 0% (w/v), pH 4.6, alcohol 0% (v/v), licoricidin 25 ppm) was “A (The bacterial count decreases to less than 10% of the bacterial count of the control group.)” and the Antimicrobial activity (salt 0% (w/v), pH 4.6, alcohol 0% (v/v), licoricidin 50 ppm) was “A (The bacterial count decreases to less than 10% of the bacterial count of the control group.)”. The Antimicrobial activity (salt 0% (w/v), pH 4.6, alcohol 5% (v/v), licoricidin 1 ppm) was “C (The bacterial count decreases to 50% or more and less than 100% of the bacterial count of control group.)”, the Antimicrobial activity (salt 0% (w/v), pH 4.6, alcohol 5% (v/v), licoricidin 5 ppm) was “A (The bacterial count decreases to less than 10% of the bacterial count of the control group.)” and the Antimicrobial activity (salt 0% (w/v), pH 4.6, alcohol 5% (v/v), licoricidin 10 ppm) was “A (The bacterial count decreases to less than 10% of the bacterial count of the control group.)”. The Antimicrobial activity (salt 0% (w/v), pH 4.6, alcohol 5% (v/v), licoricidin 25 ppm) was “A (The bacterial count decreases to less than 10% of the bacterial count of the control group.)”, the Antimicrobial activity (salt 0% (w/v), pH 4.6, alcohol 5% (v/v), licoricidin 50 ppm) was “A (The bacterial count decreases to less than 10% of the bacterial count of the control group.)” and the Antimicrobial activity (salt 0% (w/v), pH 5.0, alcohol 0% (v/v), licoricidin 1 ppm) was “D”. The Antimicrobial activity (salt 0% (w/v), pH 5.0, alcohol 0% (v/v), licoricidin 5 ppm) was “B (The bacterial count decreases to 10% or more and less than 50% of the bacterial count of the control group.)”, the Antimicrobial activity (salt 0% (w/v), pH 5.0, alcohol 0% (v/v), licoricidin 10 ppm) was “B (The bacterial count decreases to 10% or more and less than 50% of the bacterial count of the control group.)” and the Antimicrobial activity (salt 0% (w/v), pH 5.0, alcohol 0% (v/v), licoricidin 25 ppm) was “A (The bacterial count decreases to less than 10% of the bacterial count of the control group.)”. The Antimicrobial activity (salt 0% (w/v), pH 5.0, alcohol 0% (v/v), licoricidin 50 ppm) was “A (The bacterial count decreases to less than 10% of the bacterial count of the control group.)”, the Antimicrobial activity (salt 0% (w/v), pH 5.0, alcohol 5% (v/v), licoricidin 1 ppm) was “C (The bacterial count decreases to 50% or more and less than 100% of the bacterial count of control group.)” and the Antimicrobial activity (salt 0% (w/v), pH 5.0, alcohol 5% (v/v), licoricidin 5 ppm) was “B (The bacterial count decreases to 10% or more and less than 50% of the bacterial count of the control group.)”. For the same molecule, the Antimicrobial activity (salt 0% (w/v), pH 5.0, alcohol 5% (v/v), licoricidin 10 ppm) was “B (The bacterial count decreases to 10% or more and less than 50% of the bacterial count of the control group.)”, the Antimicrobial activity (salt 0% (w/v), pH 5.0, alcohol 5% (v/v), licoricidin 25 ppm) was “A (The bacterial count decreases to less than 10% of the bacterial count of the control group.)” and the Antimicrobial activity (salt 0% (w/v), pH 5.0, alcohol 5% (v/v), licoricidin 50 ppm) was “A (The bacterial count decreases to less than 10% of the bacterial count of the control group.)”. The Antimicrobial activity (salt 0% (w/v), pH 5.4, alcohol 0% (v/v), licoricidin 1 ppm) was “D”, the Antimicrobial activity (salt 0% (w/v), pH 5.4, alcohol 0% (v/v), licoricidin 5 ppm) was “D” and the Antimicrobial activity (salt 0% (w/v), pH 5.4, alcohol 0% (v/v), licoricidin 10 ppm) was “C (The bacterial count decreases to 50% or more and less than 100% of the bacterial count of control group.)”. The Antimicrobial activity (salt 0% (w/v), pH 5.4, alcohol 0% (v/v), licoricidin 25 ppm) was “C (The bacterial count decreases to 50% or more and less than 100% of the bacterial count of control group.)”, the Antimicrobial activity (salt 0% (w/v), pH 5.4, alcohol 0% (v/v), licoricidin 50 ppm) was “C (The bacterial count decreases to 50% or more and less than 100% of the bacterial count of control group.)” and the Antimicrobial activity (salt 0% (w/v), pH 5.4, alcohol 5% (v/v), licoricidin 1 ppm) was “B (The bacterial count decreases to 10% or more and less than 50% of the bacterial count of the control group.)”. The Antimicrobial activity (salt 0% (w/v), pH 5.4, alcohol 5% (v/v), licoricidin 5 ppm) was “A (The bacterial count decreases to less than 10% of the bacterial count of the control group.)”, the Antimicrobial activity (salt 0% (w/v), pH 5.4, alcohol 5% (v/v), licoricidin 10 ppm) was “A (The bacterial count decreases to less than 10% of the bacterial count of the control group.)” and the Antimicrobial activity (salt 0% (w/v), pH 5.4, alcohol 5% (v/v), licoricidin 25 ppm) was “A (The bacterial count decreases to less than 10% of the bacterial count of the control group.)”. The Antimicrobial activity (salt 0% (w/v), pH 5.4, alcohol 5% (v/v), licoricidin 50 ppm) was “A (The bacterial count decreases to less than 10% of the bacterial count of the control group.)”, the Antimicrobial activity (salt 0% (w/v), pH 5.8, alcohol 0% (v/v), licoricidin 1 ppm) was “D” and the Antimicrobial activity (salt 0% (w/v), pH 5.8, alcohol 0% (v/v), licoricidin 5 ppm) was “D”. The Antimicrobial activity (salt 0% (w/v), pH 5.8, alcohol 0% (v/v), licoricidin 10 ppm) was “D”, the Antimicrobial activity (salt 0% (w/v), pH 5.8, alcohol 0% (v/v), licoricidin 25 ppm) was “D” and the Antimicrobial activity (salt 0% (w/v), pH 5.8, alcohol 0% (v/v), licoricidin 50 ppm) was “D”. For the same molecule, the Antimicrobial activity (salt 0% (w/v), pH 5.8, alcohol 5% (v/v), licoricidin 1 ppm) was “B (The bacterial count decreases to 10% or more and less than 50% of the bacterial count of the control group.)”, the Antimicrobial activity (salt 0% (w/v), pH 5.8, alcohol 5% (v/v), licoricidin 5 ppm) was “A (The bacterial count decreases to less than 10% of the bacterial count of the control group.)” and the Antimicrobial activity (salt 0% (w/v), pH 5.8, alcohol 5% (v/v), licoricidin 10 ppm) was “A (The bacterial count decreases to less than 10% of the bacterial count of the control group.)”. For the same molecule, the Antimicrobial activity (salt 0% (w/v), pH 5.8, alcohol 5% (v/v), licoricidin 25 ppm) was “A (The bacterial count decreases to less than 10% of the bacterial count of the control group.)”, the Antimicrobial activity (salt 0% (w/v), pH 5.8, alcohol 5% (v/v), licoricidin 50 ppm) was “A (The bacterial count decreases to less than 10% of the bacterial count of the control group.)” and the Antimicrobial activity (salt 4% (w/v), pH 4.2, alcohol 0% (v/v), licoricidin 1 ppm) was “B (The bacterial count decreases to 10% or more and less than 50% of the bacterial count of the control group.)”. For the same molecule, the Antimicrobial activity (salt 4% (w/v), pH 4.2, alcohol 0% (v/v), licoricidin 5 ppm) was “A (The bacterial count decreases to less than 10% of the bacterial count of the control group.)” and the Antimicrobial activity (salt 4% (w/v), pH 4.2, alcohol 0% (v/v), licoricidin 10 ppm) was “A (The bacterial count decreases to less than 10% of the bacterial count of the control group.)”.
